Data as given in US8703785B2, “2-aminopyrimidin-4-one and 2-aminopyridine derivatives both having BACE1-inhibiting activity” (Shionogi & Co., Ltd., priority 2008, dated 2014).
Like-named read-outs stand apart in the source and are kept apart here.

Experiments:
[1] = molecular target: Recombinant human BACE-1 (Homo sapiens (Human), UniProt P56817); experiment: Measurement of BACE1 inhibitory activity; assay type: biochemical; conditions: Recombinant human BACE-1 7.4 nM, substrate peptide 18 nM, pH 5.0, 3 hours at 30° C.; read-out: IC50 (BACE1 enzyme activity)
Chain of Recombinant human BACE-1 (P56817 46-501): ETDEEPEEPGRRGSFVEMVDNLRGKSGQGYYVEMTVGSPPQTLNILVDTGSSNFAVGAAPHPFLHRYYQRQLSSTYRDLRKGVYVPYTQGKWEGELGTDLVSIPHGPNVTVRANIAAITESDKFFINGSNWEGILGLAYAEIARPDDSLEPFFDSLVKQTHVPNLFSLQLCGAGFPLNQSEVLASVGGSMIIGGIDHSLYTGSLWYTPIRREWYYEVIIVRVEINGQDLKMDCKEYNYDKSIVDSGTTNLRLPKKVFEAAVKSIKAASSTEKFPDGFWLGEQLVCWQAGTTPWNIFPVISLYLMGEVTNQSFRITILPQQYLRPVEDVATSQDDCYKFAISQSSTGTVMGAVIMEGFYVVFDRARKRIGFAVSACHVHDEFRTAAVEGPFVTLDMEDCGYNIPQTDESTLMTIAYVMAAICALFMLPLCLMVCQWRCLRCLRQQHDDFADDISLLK
Experimental: First, 48.5 μl portions of a solution of substrate peptide (Biotin-XSEVNLDAEFRHDSGC-Eu: X=ε-amino-n-capronic acid, Eu=Europium cryptate) were put into respective wells of a 96-well half area microplate (black microplate, Costar). Then, 0.5 μl of a test compound (DMSO (dimethyl sulfoxide) solution) and 1 μl of Recombinant human BACE-1 (R&D systems) were added to each of the wells, and they were reacted for 3 hours at 30° C. […] The final concentration of the substrate peptide was set to 18 nM, and the final concentration of Recombinant human BACE-1 was set to 7.4 nM. The reaction buffer used was a sodium acetate buffer (50 mM sodium acetate, pH 5.0, 0.008% Triton X-100). After the reaction finished, 50 μl portions of a 8.0 μg/ml solution of Streptavidin-XL665 (CIS bio international) in a phosphate buffer (150 mM K2HPO4—KH2PO4, pH 7.0, 0.008% Triton X-100, 0.8 M KF) were added to the respective wells, and the plate was left standing for 1 hour at 30° C. Thereafter, the fluorescence intensity (excitation wavelength: 320 nm, measurement wavelength: 620 nm and 665 nm) was measured with a Wallac 1420 multilabel counter (Perkin Elmer life sciences). The enzyme activity was determined from the count rate at each measurement wavelength (10000× Count 665/Count 620), and the amount needed to inhibit the enzyme activity by 50% (IC50) was calculated.

[2] = molecular target: CYP1A2 (Homo sapiens (Human), UniProt P05177); experiment: CYP inhibition test (CYP1A2); assay type: in vitro ADME
Chain of CYP1A2 (P05177 whole entry): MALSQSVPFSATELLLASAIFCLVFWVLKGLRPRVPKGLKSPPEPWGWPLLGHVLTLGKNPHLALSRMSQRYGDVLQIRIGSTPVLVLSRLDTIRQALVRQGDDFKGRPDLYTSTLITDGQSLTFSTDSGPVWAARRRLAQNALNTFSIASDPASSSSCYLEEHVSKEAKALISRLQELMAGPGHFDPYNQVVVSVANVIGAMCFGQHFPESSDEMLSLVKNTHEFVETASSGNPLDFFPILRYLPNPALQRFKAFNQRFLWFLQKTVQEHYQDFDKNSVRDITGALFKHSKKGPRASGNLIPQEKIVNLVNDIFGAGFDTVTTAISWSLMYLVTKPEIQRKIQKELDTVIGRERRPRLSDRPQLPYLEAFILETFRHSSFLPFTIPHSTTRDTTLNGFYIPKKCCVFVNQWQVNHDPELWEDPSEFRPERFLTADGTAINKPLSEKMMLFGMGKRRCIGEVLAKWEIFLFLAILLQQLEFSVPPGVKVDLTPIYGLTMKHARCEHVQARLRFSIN
Source text: (§1) Using commercially available pooled human liver microsomes and employing typical substrate metabolic reactions of 5 major species of human CYP enzymes (CYP1A2, 2C9, 2C19, 2D6, 3A4), namely, O-deethylation of 7-ethoxyresorufin (CYP1A2), methyl-hydroxylation of tolbutamide (CYP2C9), 4′-hydroxylation of mephenyloin (CYP2C19), O-demethylation of dextromethorphan (CYP2D6), and hydroxylation of terfenadine (CYP3A4), as indicator reactions, the degree of inhibition of each metabolite production by each test compound was evaluated.
(§2) The reaction conditions were as follows:
(§3) Substrate: 0.5 μmol/L of ethoxyresorufin (CYP1A2), 100 μmol/L of tolbutamide (CYP2C9), 50 μmol/L of S-mephenyloin (CYP2C19), 5 μmol/L of dextromethorphan (CYP2D6), 1 μmol/L of terfenadine (CYP3A4); […]
(§4) As a reaction solution, the respective five substrates, human liver microsomes, and test compound in the aforementioned amounts were added to a 50 mM Hepes buffer in a 96-well microplate. […] Centrifugation was performed for 15 minutes at 3000 rpm, and each metabolite in the centrifuged supernatant was quantified. Namely, resorufin (CYP1A2 metabolite) was quantified with a fluorescence multilabel counter, and hydroxylated tolbutamide (CYP2C9 metabolite), 4′-hydroxylated mephenyloin (CYP2C19 metabolite), dextrorphan (CYP2D6 metabolite) and alcoholized terfenadine (CYP3A4 metabolite) were quantified with LC/MS/MS. […]

[3] = system: Neuroblastoma SH-SY5Y cells (SH/APPwt) with human wild-type β-APP excessively expressed; experiment: Measurement of β-amyloid (Aβ) production inhibitory effect in cell; assay type: cell-based; conditions: 24 hours incubation, Amyloid-β 1-40 HTRF
Experimental: Neuroblastoma SH-SY5Y cells (SH/APPwt) with human wild-type β-APP excessively expressed therein were prepared at 8×10^5 cells/mL, and 150 μl portions thereof were inoculated into respective wells of a 96-well culture plate (Falcon). The cells were cultured for 2 hours at 37° C. in a 5% gaseous carbon dioxide incubator. […] Namely, the final DMSO concentration was 1%, and the amount of the cell culture was 200 μl. After the incubation was performed for 24 hours from the addition of the test compound, 100 μl of the culture supernatant was collected from each fraction. The amount of the Aβ in each fraction was measured. The Aβ amount was measured as follows. 10 μl of a homogeneous time resolved fluorescence (HTRF) measurement reagent (Amyloid-β 1-40 peptide; IBA Molecular Holding, S.A.) and 10 μl of the culture supernatant were put into a 384-well half area microplate (black microplate, Costar) and mixed with each other, and then left standing overnight at 4° C. while the light was shielded. Then, the fluorescence intensity (excitation wavelength: 337 nm, measurement wavelength: 620 nm and 665 nm) was measured with a Wallac 1420 multilabel counter (Perkin Elmer life sciences).

[4] = molecular target: T1, CYP3A4 (Homo sapiens (Human), UniProt P08684); experiment: CYP inhibition test (CYP3A4); assay type: in vitro ADME; conditions: pooled human liver microsomes, hydroxylation of terfenadine
T1 sequence (P08684 whole entry): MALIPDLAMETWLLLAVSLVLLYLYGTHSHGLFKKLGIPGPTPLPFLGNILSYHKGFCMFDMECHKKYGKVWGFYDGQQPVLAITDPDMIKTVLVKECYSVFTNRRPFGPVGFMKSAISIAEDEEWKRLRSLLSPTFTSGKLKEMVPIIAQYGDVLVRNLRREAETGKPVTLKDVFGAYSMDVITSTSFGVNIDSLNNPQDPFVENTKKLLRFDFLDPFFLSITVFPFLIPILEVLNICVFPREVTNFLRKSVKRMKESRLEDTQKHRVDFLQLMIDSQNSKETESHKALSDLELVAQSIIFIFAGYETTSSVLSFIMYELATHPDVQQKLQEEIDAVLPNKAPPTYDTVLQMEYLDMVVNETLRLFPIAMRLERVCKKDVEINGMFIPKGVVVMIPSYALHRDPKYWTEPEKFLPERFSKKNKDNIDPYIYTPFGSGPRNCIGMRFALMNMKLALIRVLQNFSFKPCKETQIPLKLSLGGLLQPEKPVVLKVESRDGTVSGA
Source text: as §1, §2, §3, §4

[5] = molecular target: CYP2D6 (Homo sapiens (Human), UniProt P10635); experiment: CYP inhibition test (CYP2D6); assay type: in vitro ADME; conditions: pooled human liver microsomes, O-demethylation of dextromethorphan
Chain of CYP2D6 (P10635 whole entry): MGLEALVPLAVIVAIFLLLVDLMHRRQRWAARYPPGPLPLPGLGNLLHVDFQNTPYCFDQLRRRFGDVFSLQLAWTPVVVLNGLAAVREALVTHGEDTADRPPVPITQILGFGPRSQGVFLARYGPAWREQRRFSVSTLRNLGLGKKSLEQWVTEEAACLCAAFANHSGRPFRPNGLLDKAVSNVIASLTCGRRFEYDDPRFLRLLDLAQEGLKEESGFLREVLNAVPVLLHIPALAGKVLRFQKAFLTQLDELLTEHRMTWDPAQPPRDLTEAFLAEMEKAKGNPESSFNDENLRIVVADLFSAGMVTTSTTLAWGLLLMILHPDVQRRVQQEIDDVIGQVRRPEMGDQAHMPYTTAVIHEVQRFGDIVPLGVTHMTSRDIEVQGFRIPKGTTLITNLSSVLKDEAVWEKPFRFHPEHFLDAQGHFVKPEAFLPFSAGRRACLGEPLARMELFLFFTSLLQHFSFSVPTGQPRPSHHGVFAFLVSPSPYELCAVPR
Source text: as §1, §2, §3, §4

[6] = molecular target: CYP2C9 (Homo sapiens (Human), UniProt P11712); experiment: CYP inhibition test (CYP2C9); assay type: in vitro ADME; conditions: pooled human liver microsomes, methyl-hydroxylation of tolbutamide
Chain of CYP2C9 (P11712 whole entry): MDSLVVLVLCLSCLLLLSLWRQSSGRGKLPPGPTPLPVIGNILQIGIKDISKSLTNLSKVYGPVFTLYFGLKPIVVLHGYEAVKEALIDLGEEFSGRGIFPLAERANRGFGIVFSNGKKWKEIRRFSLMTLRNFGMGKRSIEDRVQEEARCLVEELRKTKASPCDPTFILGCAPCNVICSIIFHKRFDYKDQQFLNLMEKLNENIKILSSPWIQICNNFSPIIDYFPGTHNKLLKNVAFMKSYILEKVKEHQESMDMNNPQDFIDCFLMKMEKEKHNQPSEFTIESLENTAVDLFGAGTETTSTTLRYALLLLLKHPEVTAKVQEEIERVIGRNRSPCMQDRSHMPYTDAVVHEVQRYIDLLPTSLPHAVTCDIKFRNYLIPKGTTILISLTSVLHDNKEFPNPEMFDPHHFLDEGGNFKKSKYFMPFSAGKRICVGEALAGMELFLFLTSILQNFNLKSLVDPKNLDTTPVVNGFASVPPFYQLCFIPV
Source text: as §1, §2, §3, §4

[7] = molecular target: CYP2C19 (Homo sapiens (Human), UniProt P33261); experiment: CYP inhibition test (CYP2C19); assay type: in vitro ADME; conditions: pooled human liver microsomes, 4′-hydroxylation of mephenyloin
Chain of CYP2C19 (P33261 whole entry): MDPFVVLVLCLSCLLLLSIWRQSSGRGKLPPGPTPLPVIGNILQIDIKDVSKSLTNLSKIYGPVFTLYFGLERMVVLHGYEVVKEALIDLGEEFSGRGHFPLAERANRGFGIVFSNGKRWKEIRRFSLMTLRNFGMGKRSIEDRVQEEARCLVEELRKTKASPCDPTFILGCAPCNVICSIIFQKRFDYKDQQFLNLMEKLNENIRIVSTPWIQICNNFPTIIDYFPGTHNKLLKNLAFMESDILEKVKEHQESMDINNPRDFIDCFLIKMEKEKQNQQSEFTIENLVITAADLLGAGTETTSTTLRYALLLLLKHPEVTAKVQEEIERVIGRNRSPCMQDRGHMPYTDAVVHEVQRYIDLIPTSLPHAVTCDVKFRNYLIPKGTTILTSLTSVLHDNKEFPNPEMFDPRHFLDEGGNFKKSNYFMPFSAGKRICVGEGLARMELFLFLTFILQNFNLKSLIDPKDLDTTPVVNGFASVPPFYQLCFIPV
Source text: as §1, §2, §3, §4

[8] = Metabolic stability test; assay type: in vitro ADME; conditions: human liver microsomes 0.5 mg protein/mL, NADPH, 30 minutes at 37° C., compound concentration 2 μM
Experimental: The target compound was reacted with commercially available pooled human liver microsomes for a predetermined time period. The residual rate was calculated by comparing the reacted sample and unreacted sample, and thus the degree of metabolism in liver was evaluated.
In 0.2 mL of a buffer (50 mmol/L tris-HCl pH 7.4, 150 mmol/L potassium chloride, 10 mmol/L magnesium chloride) containing human liver microsomes 0.5 mg protein/mL, reaction was carried out in the presence of 1 mmol/L NADPH for 0 minute or 30 minutes at 37° C. (oxidative reaction). After the reaction, 50 μL of the reaction solution was added to and mixed with 100 μL of a solution of methanol/acetonitrile=1/1 (v/v), and the mixture was centrifuged for 15 minutes at 3000 rpm. The test compound in the centrifuged supernatant was quantified by LC/MS/MS, and the residual amount of the test compound after the reaction was calculated based on the compound amount at 0-minute reaction set as 100%.
(Results) The residual rate at a compound concentration of 2 μM is shown below.

[9] = Solubility test; assay type: physicochemical; conditions: artificial intestinal juice (phosphate buffer) with 1% DMSO, fassgf or other biorelevant, kinetic from dmso stock, artificial intestinal juice pH 6.8, 16 hours at 25° C.
Experimental: The solubility of each compound was determined under 1% DMSO addition conditions. A 10 mM solution of the compound was prepared with DMSO, and 6 μL of the compound solution was added to 594 μL of an artificial intestinal juice (water and 118 mL of 0.2 mol/L NaOH reagent were added to 250 mL of 0.2 mol/L potassium dihydrogen phosphate reagent to reach 1000 mL) with a pH of 6.8. The mixture was left standing for 16 hours at 25° C., and the mixture was vacuum-filtered. The filtrate was two-fold diluted with methanol/water=1/1, and the compound concentration in the filtrate was measured with HPLC or LC/MS/MS by the absolute calibration method.

[10] = molecular target: T1, CYP3A4; experiment: CYP3A4 fluorescent MBI test; assay type: in vitro ADME; conditions: E. coli-expressing CYP3A4, 7-BFC substrate, pre-reaction 0 or 30 minutes
Experimental: The CYP3A4 fluorescent MBI test is a test to examine enhancement of CYP3A4 inhibition by metabolic reaction of the compound. Here, E. coli-expressing CYP3A4 was used as an enzyme, and a reaction wherein 7-benzyloxy trifluoromethylcumarin (7-BFC) was debenzylated by the CYP3A4 enzyme into a fluorescent metabolite 7-hydroxytrifluoromethylcumarin (HFC) was employed as an indicator reaction. The reaction conditions were as follows.
Substrate: 5.6 μmol/L 7-BFC
Pre-reaction time: 0 or 30 minutes
Reaction time: 15 minutes
Reaction temperature: 25° C. (room temperature)
CYP3A4 content (E. coli-expressing enzyme): 62.5 pmol/mL at pre-reaction, […] at reaction (10-fold diluted) […]
The enzyme and a test compound solution were added to a K-Pi buffer (pH 7.4) in the aforementioned amounts for the pre-reaction so that a pre-reaction solution was prepared, and this solution was put into a 96-well microplate. […] With respect to each of the microplates on which the indicator reaction was performed, the fluorescence value of the metabolite 7-HFC was measured with a fluorescence plate reader (Ex=420 nm, Em=535 nm). […] The remaining activity (%) at each concentration after adding the test compound solution was calculated, and the IC50 value was calculated from the concentration and inhibition percentage by inverse estimation with the logistic model. […]

| IC50 [1] [nM] | IC50 [3] [nM] | SMILES | also measured |
| --- | --- | --- | --- |
| 73 | 43.8 | CC#CCOc1cnc(C(=O)Nc2cccc(CNc3cccnc3N)c2)cn1 [Compound 482] | – |
| 180 | 76.8 | C#CCOc1cnc(C(=O)Nc2cccc(CNc3cccnc3N)c2)cn1 [Compound 481] | – |
| – | 36.8 | C[C@@H](NC(=O)c1cc(C(=O)N[C@@H](Cc2ccccc2)[C@H](O)CNC2CC2)cc(N(C)S(C)(=O)=O)c1)c1ccccc1 [Reference Compound, reference compound] | – |

Second part, the compound before the results:

| SMILES | IC50 [1] [nM] | IC50 [3] [nM] | also measured |
| --- | --- | --- | --- |
| CC#CCOc1cnc(C(=O)Nc2cccc(C3(C)CC(=O)N(C)C(N)=N3)c2)cn1 (stereo not shown) [Compound 44] | 12 | 0.7 | IC50 [2]: > 20000 nM; IC50 [4]: > 20000 nM; IC50 [5]: > 20000 nM; IC50 [6]: > 20000 nM; IC50 [7]: > 20000 nM |
| COc1cnc(C(=O)Nc2cccc(C3(C)CC(=O)N(C)C(N)=N3)c2)cn1 (stereo not shown) [Compound 35] | 42 | 6.6 | residual rate [8]: 99.5% |
| COc1cnc(C(=O)Nc2cccc(CNc3cccnc3N)c2)cn1 [Compound 473] | 1980 | 479 | solubility at 16 h [9]: > 50 µM; IC50 ([2]; pooled human liver microsomes, O-deethylation of 7-ethoxyresorufin, read-out: IC50 CYP1A2 inhibition): > 20000 nM; IC50 [4]: > 20000 nM; IC50 [5]: > 20000 nM; IC50 [6]: > 20000 nM; IC50 [7]: > 20000 nM |
| CN1C(=O)CC(C)(c2cccc(NC(=O)c3cnc(Cl)cn3)c2)N=C1N (stereo not shown) [Compound 34] | 37 | 76.2 | – |
| C#CCOc1cnc(C(=O)Nc2cccc(C3(C)CC(=O)N(C)C(N)=N3)c2)cn1 (stereo not shown) [Compound 43] | 56 | 28.6 | IC50 difference without vs with pre-reaction [10]: ≤ 3000 nM |
| COCCOc1cnc(C(=O)Nc2cccc(CNc3cccnc3N)c2)cn1 [Compound 478] | 3180 | 811 | solubility at 16 h [9]: > 50 µM |
